Measurements as given in US20190308956A1, “PIPERAZINE DERIVATIVES AS ANTIVIRAL AGENTS WITH INCREASED THERAPEUTIC ACTIVITY” (SERVICIO ANDALUZ DE SALUD, priority 2016, published 2019).

Experiments:
[1] = Cytotoxicity assay (alamarBlue cell viability); assay type: cell-based, Human; conditions: human, A549 cells, 48 h
Experimental: 1.4. Cytotoxicity assay. The cytotoxicity of the compounds was measured using the AlarmBlue cell viability assay (Invitrogen) according to the manufacturer's instructions. Actively dividing A549 cells were incubated with compounds for 48 h. After the incubation the alamarBlue reagent was added to the cells ( 1/10th alamarBlue reagent in culture medium) for an extra 4 h. The 50% cell cytotoxic concentration (CC50) of the molecules was calculated according to Cheng et al.42 The selectivity index (SI) was evaluated as the ratio of CC50 to IC50, where the IC50 is defined as the concentration of compound that inhibits HAdV infection by 50%.

HAdV5-GFP = experiment: Plaque assay, HAdV5-GFP in 293β5 cells; assay type: cell-based; conditions: read-out: Percentage of plaque formation inhibition, HAdV5-GFP, 10 μM, 293β5 cell line
Experimental: 1.5. Plaque assay. For low MOI infections, active compounds were further evaluated in a plaque assay. 293β5 cells were seeded in 6-well plates at 4×10^5 cells per well in duplicate for each condition. When cells reached 80-90% confluency, they were infected with HAdV5-GFP or HAdV16-GFP (0.06 vp/cell) and rocked for 2 h at 37° C. The inoculum was removed and the cells were washed once with PBS. The cells were then carefully overlaid with 4 ml/well of equal parts of 1.6% […] Difco Agar Noble (Becton, Dickinson & Co, Sparks, MD) and 2× EMEM (BioWhittaker) supplemented with 2x penicillin/streptomycin, 2× L-glutamine and 10% FBS. The mixture also contained compound in concentrations ranging from 5 to 1 μM. Following incubation for 7 days at 37° C., plates were scanned with a Typhoon 9410 imager (GE Healthcare Life Sciences), and plaques were quantified with ImageJ.43
For the plaque assay 293β5 cells were infected with HAdV5-GFP (in the presence of compound at 10 μM) (Table 2). From this generation of compounds, our primary screening identified 4 compounds (12, 13, 22 and 25) that inhibited HAdV5-GFP plaque formation >90% compared to a control with the same volume of DMSO.

[2] = tested on: Acinetobacter baumannii strains resistant to colistine; experiment: Minimal inhibitory concentration (MIC), microdilution in MHBII; assay type: cell-based; conditions: 5×10^5 CFU/ml, 18 h; for CMI (MIC) Ab 21R: strain Ab 21R; for CMI (MIC) Ab 21R / CMI (MIC) Ab 22P: MHBII; for CMI (MIC) Ab 22P: strain Ab 22P; for CMI (MIC) Ab 24: strain Ab 24, MHBII
Text: (§1) All of the strains used were Acinetobacter baumannii strains resistant to colistine: Resistance (R)≥4 Sensibility (S)≤2—All of these strains have been disclosed in Valencia R, Arroyo L A, Conde M, Aldana J M, Torres M J, Fernandez-Cuenca F, et al. Nosocomial outbreak of infection with pan-drug-resistant Acinetobacter baumannii in a tertiary care university hospital. Infection control and hospital epidemiology. 2009; 30(3):257-63. The specific strains used were the following: 1, 10, 11, 14, 16, 17, 19, 20, 21R, 22P, 24, 99 and 113.
Microdilution in cell medium Mueller Hinton Broth II (MHBII). This technique was carried out solely in those piperazines which presented inhibitory activity in the screening study.
We used decreasing concentrations of each piperazine derivative (from 50 μM -0.05 μM) in a concentration of 5×10^5 CFU/ml of each strain of A. baumannii in 96 well plates. These plates were incubated for 18 hours at a temperature 37° C.

[3] = tested on: Acinetobacter baumannii strains resistant to colistine; experiment: Screening of inhibition of bacterial growth at 50 μM; assay type: cell-based; conditions: 5×10^5 CFU/ml, 18 h; for Screening, growth inhibition Ab 21R: strain Ab 21R; for Screening, growth inhibition Ab 21R / Screening, growth inhibition Ab 22P: 50 μM; for Screening, growth inhibition Ab 22P: strain Ab 22P; for Screening, growth inhibition Ab 24: strain Ab 24, 50 μM
Text: as §1
Evaluation of the inhibition of the bacterial growth of the 4 families of piperazines derivatives was performed by using a final concentration of 50 μM of each piperazine derivative in a concentration of 5×10^5 CFU/ml of each strain of A. baumannii in 96-well plates.
These plates were incubated for 18 hours at 37° C.

Compound | CC50 at 48 h [1] [µM] | inhibition at 10 µM (HAdV5-GFP) [%] | also measured
CC(C)(C)C(=O)N1CCN(C(=O)Nc2ccc([N+](=O)[O-])cc2)C(c2ccccc2)C1 (centres unmarked) [Compound 56, 1-[(4-Nitrophenyl)aminocarbonyl]-2-phenyl-4-pivaloylpiperazine] | 102 ± 8.38 | 43.8 ± 13.2 | 
CC1CN(C(=O)C(C)(C)C)CCN1C(=O)Nc1ccc([N+](=O)[O-])cc1 (centres unmarked) [Compound 18, 2-Methyl-1-[(4-nitrophenyl)aminocarbonyl]-4-pivaloylpiperazine] |  | 0 | 
CC1CN(C(=O)c2cc3ccccc3o2)CCN1C(=O)Nc1ccc(Cl)cc1 (centres unmarked) [Compound 32, 4-(Benzofuran-2-carbonyl)-1-[(4-chlorophenyl)aminocarbonyl]-2-methylpiperazine] | 144 ± 20.8 | 6.69 ± 11.1 | 
COc1ccc(C(=O)N2CCN(C(=O)c3ccccc3)CC2C)cc1 (centres unmarked) [Compound 21, 4-Benzoyl-1-(4-methoxybenzoyl)-2-methylpiperazine] |  | 0 | 
COc1ccc(NC(=O)N2CCN(C(=O)C(C)(C)C)CC2C)cc1 (centres unmarked) [Compound 19, 1-[(4-Methoxyphenyl)aminocarbonyl]-2-methyl-4-pivaloylpiperazine] |  | 0 | 
COc1ccc(NC(=O)N2CCN(C(=O)OC(C)(C)C)CC2C)cc1 (centres unmarked) [Compound 14, 4-tert-Butoxycarbonyl-1-[(4-methoxyphenyl)aminocarbonyl]-2-methylpiperazine] |  | 49.1 ± 1.39 | 
C[C@@H]1CN(C(=O)OC(C)(C)C)CCN1C(=S)Nc1cc(C(F)(F)F)cc(C(F)(F)F)c1 [Compound R-592] |  |  | CMI (MIC) Ab 21R [2]: 3.12 µM; Screening, growth inhibition Ab 21R [3]: <50 µM
CC(C)(C)OC(=O)N1CCN(C(=O)Nc2ccccc2[N+](=O)[O-])C(c2ccccc2)C1 (centres unmarked) [Compound 51, 4-tert-Butoxycarbonyl-1-[(2-nitrophenyl)aminocarbonyl]-2-phenylpiperazine] | 82.2 ± 9.06 | 100 | 
Cc1ccc(NC(=O)N2CCN(C(=O)OC(C)(C)C)CC2c2ccccc2)cc1 (centres unmarked) [Compound 55, 4-tert-Butoxycarbonyl-1-[(4-methylphenyl)aminocarbonyl]-2-phenylpiperazine] | 165 ± 17.4 | 63.02 ± 0.2 | 
CC(C)(C)OC(=O)N1CCN(C(=O)Nc2ccc(Cl)cc2)C(c2ccccc2)C1 (centres unmarked) [Compound 47, 4-tert-Butoxycarbonyl-1-[(4-chlorophenyl)aminocarbonyl]-2-phenylpiperazine] | 17.1 ± 4.24 | 86.3 ± 6.35 | 
COc1ccc(NC(=O)N2CCN(C(=O)c3ccccc3)CC2C)cc1 (centres unmarked) [Compound 24, 4-Benzoyl-1-[(4-methoxyphenyl)aminocarbonyl]-2-methylpiperazine] |  | 0 | 
CC1CN(C(=O)c2cc3ccccc3o2)CCN1C(=O)Nc1ccc(C#N)cc1 (centres unmarked) [Compound 34, 4-(Benzofuran-2-carbonyl)-1-[(4-cyanophenyl)aminocarbonyl]-2-methylpiperazine] | 118 ± 30.2 | 83.2 ± 1.55 | 
CC1CN(C(=O)c2ccccc2)CCN1C(=S)Nc1ccc([N+](=O)[O-])cc1 (centres unmarked) [Compound 22, 4-Benzoyl-2-methyl-1-[(4-nitrophenyl)aminothiocarbonyl]piperazine] | 31.4 ± 2.82 | > 90 | 
CC1CN(C(=O)OC(C)(C)C)CCN1C(=O)Nc1ccc([N+](=O)[O-])cc1 (centres unmarked) [Compound 13, 4-tert-Butoxycarbonyl-2-methyl-1-[(4-nitrophenyl)aminocarbonyl]piperazine] | 143 ± 3.29 | > 90 | 
CC1CN(C(=O)OC(C)(C)C)CCN1C(=O)Nc1ccc(C(F)(F)F)cc1 (centres unmarked) [Compound 28, 4-tert-Butoxycarbonyl-2-methyl-1-[(4-trifluoromethylphenyl)aminocarbonyl]piperazine] | 137 ± 24.3 | 30.6 ± 14.6 | 
CC1CN(C(=O)c2ccccc2)CCN1C(=O)Nc1ccc([N+](=O)[O-])cc1 (centres unmarked) [Compound 23, 4-Benzoyl-2-methyl-1-[(4-nitrophenyl)aminocarbonyl]piperazine] |  | 71.7 ± 3.43 | 
CC1CN(C(=O)c2cc3ccccc3o2)CCN1C(=O)Nc1ccc(C(F)(F)F)cc1 (centres unmarked) [Compound 33, 4-(Benzofuran-2-carbonyl)-2-methyl-1-[(4-trifluoromethylphenyl)aminocarbonyl]piperazine] | 82.2 ± 24.3 | 91 to 100 | 
CC1CN(C(=O)c2cc3ccccc3o2)CCN1C(=O)Nc1ccccc1 (centres unmarked) [Compound 41, 4-(Benzofuran-2-carbonyl)-2-methyl-1-(phenylaminocarbonyl)piperazine] |  | 11.2 ± 26.5 | 
CC1CN(C(=O)c2cc3ccccc3o2)CCN1C(=O)Nc1ccccc1Br (centres unmarked) [Compound 38, 4-(Benzofuran-2-carbonyl)-1-[(2-bromophenyl)aminocarbonyl]-2-methylpiperazine] |  | 55.8 ± 19.5 | 
C[C@H]1CN(C(=O)OC(C)(C)C)CCN1C(=S)Nc1cc(C(F)(F)F)cc(C(F)(F)F)c1 [Compound S-592] |  |  | CMI (MIC) Ab 21R [2]: 3.12 µM; CMI (MIC) Ab 22P [2]: 12.5 µM; CMI (MIC) Ab 24 [2]: 3.12 µM; Screening, growth inhibition Ab 21R [3]: <50 µM; Screening, growth inhibition Ab 22P [3]: <50 µM; Screening, growth inhibition Ab 24 [3]: <50 µM
C[C@@H]1CN(C(=O)CC2CCCCC2)CCN1C(=S)Nc1cc(C(F)(F)F)cc(C(F)(F)F)c1 [Compound R-615] |  |  | CMI (MIC) Ab 24 [2]: 6.25 µM; Screening, growth inhibition Ab 24 [3]: <50 µM
CC(C)(C)OC(=O)N1CCN(C(=O)Nc2ccc(Cl)c(C(F)(F)F)c2)C(c2ccccc2)C1 (centres unmarked) [Compound 53, 4-tert-Butoxycarbonyl-1-[(4-chloro-3-trifluoromethylphenyl)aminocarbonyl]-2-phenylpiperazine] | 27.5 | 100 | 
CC1CN(C(=O)OC(C)(C)C)CCN1C(=O)Nc1ccc(Cl)cc1 (centres unmarked) [Compound 27, 4-tert-Butoxycarbonyl-1-[(4-chlorophenyl)aminocarbonyl]-2-methylpiperazine] | 150 ± 1.01 | 62.03 ± 0.26 | 
CC1CN(C(=O)C(C)(C)C)CCN1C(=S)Nc1ccc([N+](=O)[O-])cc1 (centres unmarked) [Compound 17, 2-Methyl-1-[(4-nitrophenyl)aminothiocarbonyl]-4-pivaloylpiperazine] |  | 64 ± 8.97 | 
CC(C)(C)OC(=O)N1CCN(C(=O)Nc2ccc(C#N)cc2)C(c2ccccc2)C1 (centres unmarked) [Compound 50, 4-tert-Butoxycarbonyl-1-[(4-cyanophenyl)aminocarbonyl]-2-phenylpiperazine] | 91.3 ± 61.5 | 67.2 ± 16.5 | 
COc1ccccc1NC(=O)N1CCN(C(=O)c2cc3ccccc3o2)CC1C (centres unmarked) [Compound 40, 4-(Benzofuran-2-carbonyl)-1-[(2-methoxyphenyl)aminocarbonyl]-2-methylpiperazine] |  | 16.4 ± 5.81 | 
CC1CN(C(=O)OC(C)(C)C)CCN1C(=S)Nc1ccc([N+](=O)[O-])cc1 (centres unmarked) [Compound 12, 4-tert-Butoxycarbonyl-2-methyl-1-[(4-nitrophenyl)aminothiocarbonyl]piperazine] | 26.3 ± 1.59 | > 90 | 
CC1CN(C(=O)OC(C)(C)C)CCN1C(=S)Nc1ccc([N+](=O)[O-])cc1 (centres unmarked) [Vip 499] |  |  | CMI (MIC) Ab 14 ([2]; strain Ab 14, MHBII): 25 µM; CMI (MIC) Ab 21R [2]: 50 µM; CMI (MIC) Ab 22P [2]: 25 µM; CMI (MIC) Ab 24 [2]: 25 µM; Screening, growth inhibition Ab 14 ([3]; strain Ab 14, 50 μM): <50 µM; Screening, growth inhibition Ab 21R [3]: <50 µM; Screening, growth inhibition Ab 22P [3]: <50 µM; Screening, growth inhibition Ab 24 [3]: <50 µM
